Patent publication US20190133128A1, “Fungicidal pyridazinones” (FMC Corporation, priority 2017, published 2019)

Columns and labels:
Format in all cases: in vivo
Phakopsora pachyrhizi = test: Test A: preventive spray on soybean seedlings, Asian soybean rust, visual disease rating; conditions: for pest or weed control at 250 ppm: Phakopsora pachyrhizi
Botrytis cinerea = test: Test C: preventive spray on tomato seedlings, gray mold, visual disease rating; conditions: for pest or weed control at 250 ppm: Botrytis cinerea
Text: (§1) General protocol for preparing test solutions for Tests AG: the test compounds were first dissolved in acetone in an amount equal to 3% of the final volume and then suspended at the desired concentration (in ppm) in acetone and purified water (50/50 mix by volume) containing the surfactant PEG400 (polyhydric alcohol esters). The resulting test suspensions were then used in Tests AG. Compounds were sprayed at a concentration of 250 ppm or other indicated rate to the point of run-off on the test plants. The test solution was sprayed to the point of run-off on tomato seedlings. […] A dash (-) indicates no test results.

Phytophthora infestans = test: whole plant or invertebrate; conditions: for Test D disease control rating: tomato seedlings; for pest or weed control at 250 ppm: Phytophthora infestans, in Solanum lycopersicum, read-out: Test D disease control rating
Zymoseptoria tritici = test: Test E: preventive spray on wheat seedlings, wheat leaf blotch, visual disease rating; conditions: for pest or weed control at 250 ppm: Zymoseptoria tritici
Text: as §1, with “wheat” for “tomato”

[1] = test system: Puccinia recondita f. sp. tritici; test: Test F: preventive spray on wheat seedlings, wheat leaf rust, visual disease rating; conditions: for pest or weed control at 250 ppm: Puccinia recondita
Text: as §1, with “wheat” for “tomato”, “seedlings. The following day the seedlings were inoculated with a spore suspension of Puccinia recondita f. sp. tritici;” for “seedlings.”

[2] = test system: Erysiphe graminis f. sp. tritici; test: Test G: preventive spray on wheat seedlings, wheat powdery mildew, visual disease rating; conditions: for pest or weed control at 250 ppm: Blumeria graminis, 192 h
Text: as §1, with “wheat” for “tomato”

[3] = 250 ppm, 100 = 100% disease control, 0 = no control

Row | Compound | Test A disease control rating (Phakopsora pachyrhizi; [3]) [%] | Test C disease control rating (Botrytis cinerea; [3]) [%] | Test D disease control rating (Phytophthora infestans; [3]) [%] | Test E disease control rating (Zymoseptoria tritici; [3]) [%] | Test F disease control rating [1, 3] [%] | Test G disease control rating [2, 3] [%] | other results
1 | Cn1ncc(OC(=O)C(C)(C)C)c(C(=O)Nc2ccc(OC(F)(F)F)cc2)c1=O [Compound 53] | 79 | 39 | 99 | 79 | 100 | 98 | –
2 | Cc1cccc(NC(=O)c2c(O)cnn(C)c2=O)c1 [Compound 54] | 0 | 0 | 0 | 0 | 95 | 0 | –
3 | COc1cccc(NC(=O)c2c(O)cnn(C)c2=O)c1 [Compound 55] | 0 | 0 | 0 | 0 | 89 | 0 | –
4 | Cn1ncc(O)c(C(=O)Nc2cccc(C(F)(F)F)c2)c1=O [Compound 56] | 0 | 0 | 61 | 0 | 92 | 35 | –
5 | Cn1ncc(O)c(C(=O)Nc2cccc(OC(F)(F)F)c2)c1=O [Compound 57] | 0 | 0 | 0 | 8 | 84 | 98 | –
6 | COc1cnn(C)c(=O)c1C(=O)Nc1ccc(Br)cc1 [Compound 59] | 0 | 0 | 0 | 0 | 0 | 0 | –
7 | O=C(Nc1ccc(OC(F)(F)F)cc1)c1c(O)cnn(-c2ccccc2)c1=O [Compound 60] | 0 | 0 | 88 | 92 | 88 | 57 | –
8 | Cn1ncc(Cl)c(C(=O)Nc2cccc(OC(F)(F)F)c2)c1=O [Compound 63] | – | – | – | – | – | – | Test A disease control rating (Phakopsora pachyrhizi; 270 ppm): 59%; Test C disease control rating (Botrytis cinerea; 270 ppm): 53%; Test D disease control rating (Phytophthora infestans; 270 ppm): 53%; Test E disease control rating (Zymoseptoria tritici; 270 ppm): 98%; Test F disease control rating ([1]; 270 ppm): 86%; Test G disease control rating ([2]; 270 ppm): 48%
9 | Cn1ncc(Cl)c(C(=O)Nc2cccc(C(F)(F)F)c2)c1=O [Compound 64] | – | – | – | – | – | – | Test A disease control rating (Phakopsora pachyrhizi; 265 ppm): 92%; Test C disease control rating (Botrytis cinerea; 265 ppm): 76%; Test D disease control rating (Phytophthora infestans; 265 ppm): 53%; Test E disease control rating (Zymoseptoria tritici; 265 ppm): 94%; Test F disease control rating ([1]; 265 ppm): 91%; Test G disease control rating ([2]; 265 ppm): 0%
10 | O=C(Nc1ccc(OC(F)(F)F)cc1)c1c(O)cnn(-c2cccc(C(F)(F)F)c2)c1=O [Compound 71] | 12 | 0 | 0 | 0 | 0 | 0 | –
11 | Cn1ncc(OC(=O)c2ccccc2)c(C(=O)N(C(=O)c2ccccc2)c2ccc(OC(F)(F)F)cc2)c1=O [Compound 81] | 0 | 0 | 0 | 67 | 98 | 0 | –
12 | Cn1ncc(OS(C)(=O)=O)c(C(=O)Nc2ccc(OC(F)(F)F)cc2)c1=O [Compound 90] | 98 | 60 | 78 | 100 | 98 | 0 | –
13 | Cn1ncc(O)c(C(=O)Nc2ccc(S(F)(F)(F)(F)F)cc2)c1=O [Compound 91, [4-[[[2,3-Dihydro-5-hydroxy-2-methyl-3-oxo-4-pyridazinyl]carbonyl]amino]phenyl]pentafluorosulfur] | – | – | – | – | – | – | pest or weed control at 250 ppm (Phakopsora pachyrhizi; [3]): 46%; pest or weed control at 250 ppm (Botrytis cinerea; [3]): 0%; pest or weed control at 250 ppm (Phytophthora infestans): 97%; pest or weed control at 250 ppm (Zymoseptoria tritici; [3]): 100%; pest or weed control at 250 ppm [1, 3]: 99%; pest or weed control at 250 ppm [2, 3]: 89%
14 | Cn1ncc(OS(C)(=O)=O)c(C(=O)Nc2ccc(C(F)(F)F)cc2)c1=O [Compound 96, 2,3-Dihydro-2-methyl-5-[(methylsulfonyl)oxy]-3-oxo-N-[4-(trifluoromethyl)phenyl]-4-pyridazinecarboxamide] | – | – | – | – | – | – | pest or weed control at 250 ppm (Phakopsora pachyrhizi; [3]): 98%; pest or weed control at 250 ppm (Botrytis cinerea; [3]): 30%; pest or weed control at 250 ppm (Phytophthora infestans): 0%; pest or weed control at 250 ppm (Zymoseptoria tritici; [3]): 97%; pest or weed control at 250 ppm [1, 3]: 99%; pest or weed control at 250 ppm [2, 3]: 84%
15 | Cn1ncc(OS(C)(=O)=O)c(C(=O)Nc2ccc(OC(F)F)cc2)c1=O [Compound 97, N-[4-(Difluoromethoxy)phenyl]-2,3-dihydro-2-methyl-5-[(methylsulfonyl)oxy]-3-oxo-4-pyridazinecarboxamide] | – | – | – | – | – | – | pest or weed control at 250 ppm (Phakopsora pachyrhizi; [3]): 95%; pest or weed control at 250 ppm (Botrytis cinerea; [3]): 40%; pest or weed control at 250 ppm (Phytophthora infestans): 95%; pest or weed control at 250 ppm (Zymoseptoria tritici; [3]): 100%; pest or weed control at 250 ppm [1, 3]: 99%; pest or weed control at 250 ppm [2, 3]: 91%
16 | Cn1ncc(OS(C)(=O)=O)c(C(=O)Nc2ccc(C#N)cc2)c1=O [Compound 98, N-(4-cyanophenyl)-2,3-dihydro-2-methyl-5-[(methylsulfonyl)oxy]-3-oxo-4-pyridazinecarboxamide] | – | – | – | – | – | – | pest or weed control at 250 ppm (Phakopsora pachyrhizi; [3]): 99%; pest or weed control at 250 ppm (Botrytis cinerea; [3]): 98%; pest or weed control at 250 ppm (Phytophthora infestans): 9%; pest or weed control at 250 ppm (Zymoseptoria tritici; [3]): 95%; pest or weed control at 250 ppm [1, 3]: 97%; pest or weed control at 250 ppm [2, 3]: 0%
17 | Cn1ncc(OS(C)(=O)=O)c(C(=O)Nc2ccc(S(F)(F)(F)(F)F)cc2)c1=O [Compound 99, [4-[[[2,3-Dihydro-2-methyl-5-[(methylsulfonyl)oxy]-3-oxo-4-pyridazinyl]carbonyl]amino]phenyl]pentafluorosulfur] | – | – | – | – | – | – | pest or weed control at 250 ppm (Phakopsora pachyrhizi; [3]): 99%; pest or weed control at 250 ppm (Botrytis cinerea; [3]): 50%; pest or weed control at 250 ppm (Phytophthora infestans): 92%; pest or weed control at 250 ppm (Zymoseptoria tritici; [3]): 100%; pest or weed control at 250 ppm [1, 3]: 98%; pest or weed control at 250 ppm [2, 3]: 83%
18 | Cn1ncc(OS(C)(=O)=O)c(C(=O)Nc2ccc(OC(F)(F)F)cc2F)c1=O [Compound 100] | 94 | 98 | 0 | 92 | 95 | 0 | –
19 | Cn1ncc(OS(C)(=O)=O)c(C(=O)Nc2ccc(F)cc2)c1=O [Compound 101] | 78 | 0 | 9 | 78 | 99 | 0 | –
20 | Cn1ncc(OS(C)(=O)=O)c(C(=O)Nc2ccc(C(F)(F)F)cc2F)c1=O [Compound 102] | 99 | 41 | 26 | 95 | 99 | 0 | –
21 | Cn1ncc(OS(C)(=O)=O)c(C(=O)Nc2ccccc2-c2cc(F)c(F)c(F)c2)c1=O [Compound 103] | 84 | 0 | 0 | 96 | 90 | 73 | –
